pIC50: −log10 of the molar value.
Assays:
[1] = system: human cervical cancer (HeLa) cell lines; assay: Cytotoxicity assay (MTT method) against HeLa cell lines; format: cell-based; settings: HeLa cells
Procedure: (§1) The cytotoxicity assay of the isolated compounds were evaluated against human lung carcinoma (A549), human cervical cancer (HeLa), human leukemia (K562), and human T-cell leukemia (Jurkat) cell lines using the MTT method with Doxorubicin as the positive control.

[2] = Cytotoxicity assay (MTT method) against Jurkat cell lines; format: cell-based; settings: human, Jurkat cells (human T-cell leukemia), Doxorubicin as positive control
Procedure: as §1

SMILES | pIC50 [1] | pIC50 [2]
CN1C(=O)N(C)C(O)(CC2(O)C(=O)Nc3ccccc32)C1=O (single isomer, unassigned; (+)) [(+)-3, (+)-oxoaplysinopsin C] | 4.57 | 
CN1C(=O)N(C)C(O)(CC2(O)C(=O)Nc3ccccc32)C1=O (single isomer, unassigned; (-)) [(−)-3, (−)-oxoaplysinopsin C] | 4.21 | 
COC(=O)NCCCCCNC(=O)C1=NO[C@]2(C=C(Br)C(OC)=C(Br)[C@@H]2O)C1 [Compound 19, Subereamolline D] |  | 6.06

— publication PMC6381124, “Aplysinopsin-type and Bromotyrosine-derived Alkaloids from the South China Sea Sponge Fascaplysinopsis reticulata” (Scientific Reports, 2019)
